Measurements as given in US12576051B2, “Methods and composition for treating respiratory obstructive diseases” (The Regents of the University of California, priority 2019, dated 2026).
Where a name gives a salt, the structure may show the parent alone.

Columns and labels:
[1] = tested on: Muc5ac mucin from porcine airway mucus; assay: Mucolytic effect on Muc5ac mucin from porcine airway mucus (western blot, densitometry); assay type: biochemical; details: 2 mM, 30 mins at 37° C.; compound preincubated in HCO3-Ringer, HCO3-Ringer/acetic acid or acetate buffer pH 4.5
Procedure: (§1) (Upper panel) Identification of Muc5ac mucin (black arrow) by western blot, from airway mucus sample collected in HCO3-Ringer and treated with or without 2 mM of compound 646 for 30 mins at 37° C. Lane CTRL, untreated sample as control. Lane Bic, sample treated with compound preincubated in HCO3-Ringer; lane Bic/Ac, sample treated with compound preincubated with 1:1 HCO3-Ringer/Acetic acid 0.1N; lane Ac, sample treated with compound preincubated in acetate buffer 1M, pH 4.5. Lower panel, densitometric analysis of the protein bands identified with the Muc5ac mucin antibody. Densitometric signal of the sample control (CTRL) was normalized as 100% (% arbitrary units).
as §1, with “647” for “646”, “4.5, as described under Methods.” for “4.5.”, “units). Control is pH 8, Bic 7.4, Bic/AC 6.9 AND AC 6.2” for “units).”
as §1, with “655” for “646”
as §1, with “compounds 656” for “compound 646”

[2] = tested on: respiratory secreted mucus; assay: Mucolytic activity on respiratory secreted mucus of open porcine trachea sections (alcian blue); details: 2 mM, HCO3-Ringer with PGE2 (1 uM) and alcian blue (0.02%), 10 minutes at 37° C., untreated showed clusters of secreted mucus
Procedure: (§2) FIG. 16 provides the mucolytic activity of compounds 646 and 647 on respiratory secreted mucus. Small sections of open porcine trachea (˜2 cm^2) were covered with HCO3-Ringer solution ([…]) containing PGE2 (1 uM) and alcian blue (0.02%), with or without compounds at a 2 mM final concentration, and then incubated for 10 minutes at 37° C.
as §2, with “17” for “16”, “655” for “646”, “656” for “647”

[3] = tested on: secreted Muc5ac mucin; assay: Mucolytic activity on secreted Muc5ac mucin of open porcine trachea sections (western blot); details: for native Muc5ac levels on epithelial luminal surfaces (immunoblot) / breaking down the mucus (secreted Muc5ac western blot): 2 mM; for native Muc5ac levels on epithelial luminal surfaces (immunoblot): HCO3-Ringer with PGE2 (1 uM), 10 minutes at 37° C., FIG. 18; for breaking down the mucus (secreted Muc5ac western blot): 5 minutes at 37° C., then 7% NaCl inhaled solution 5 mins, FIG. 19
Procedure: FIG. 18 provides the mucolytic activity of compounds on secreted Muc5ac mucin. Epithelial luminal surface of open porcine trachea sections (˜2 cm^2) were covered with HCO3-Ringer solution ([…]) containing PGE2 (1 uM), and alcian blue (0.02%), with or without compounds at a 2 mM final concentration, and incubated for 10 minutes at 37° C. Equal volumes of each collected sample were separated on vertical electrophoresis, and then transfer to an immobilon-P membrane for western blot analysis. […] Densitometric signal of the untreated sample, as control, was normalized to 100% (% arbitrary units).
Epithelial luminal surface of open porcine trachea sections (˜2 cm^2) were covered with […] of HCO3-Ringer solution containing PGE2 (1 uM), in the presence or absence of compounds at a 2 mM final concentration, and incubated for 5 minutes at 37° C. Afterwards, […] of sterile 7% NaCl inhaled solution was added and incubated for another 5 mins at 37° C. Equal volumes of each collected sample were separated on vertical electrophoresis, and then transferred to an immobilon-P membrane for western blot analysis. […] Densitometric signal of the non-treated sample, as control, was normalized to 100% (% arbitrary units).

[4] = tested on: porcine airway; assay: Ex vivo porcine airway models (summary statement)
Description: Abnormal mucus accumulation in airways has deleterious, and fatal consequence in patients suffering from respiratory obstructive diseases, such as cystic fibrosis (CF), COPD and asthma. Therefore, there is a need for therapies aimed at decreasing mucus accumulation to facilitate airway mucus clearance.

[5] = tested on: Porcine mucin 15% (W/V); assay: Mucolytic activity: mucin viscosity by volume displaced through Pasteur pipette; assay type: biochemical; details: 10 mg/mL, Ringer buffer with bicarbonate (25 mM), 4 hours at 37° C.; versus without cysteamine
Procedure: Porcine mucin 15% (W/V) was incubated in Ringer buffer solution containing bicarbonate (25 mM) in the presence (+) or absence (−) of Cysteamine bitartrate (10 mg/mL), for 4 h at 37° C. Thereafter, equal volume of mucin solution from each condition were aspirated separately in a sterile Pasteur pipette. Changes in mucin viscosity was measured by the rapidity of the volume displaced toward the bottom of the pipette, as indicated in each panel (0-12 seconds). […] Porcine mucin 15% (W/V) was incubated in Ringer buffer solution containing bicarbonate (25 mM) in the presence (+) or absence (−) of cysteamine bitartrate (10 mg/mL), for 4 hours at 37° C. Changes in mucin viscosity was determined by the percentage of volume displaced as a function of time (0-12 seconds) through a vertical sterile Pasteur pipette tip at room temperature.

[6] = tested on: mucin released over the luminal airway surface; assay: Mucin clearance on surface airway epithelium of isolated porcine airways (histology); details: 200 μM, 5 min, after bicarbonate (25 mM) and PGE2 (10 μM) 5 min at 37° C.
Procedure: Cysteamine facilitates clearance of mucin released over the luminal airway surface. Porcine airways were incubated in the presence of buffer containing bicarbonate (25 mM) and PGE2 (10 μM) for 5 min at 37° C. Thereafter, airways were subsequently incubated in the presence or absence of Cysteamine (200 μM) for an additional 5 min. Airways, were harvested and processed for histological analysis.
(§3) Biological specimens: Isolated native porcine airways were used as experimental model. Sections of open trachea tissue (approx. 2 cm^2) were carefully rinsed and cover small volume of NaHCO3-Ringer solution. Mucus secretion was stimulated with Prostaglandin E2 (PGE2, 10−6 M). Secreted mucus over the dissected open airways was carefully collected, aliquoted and immediately frozen at −80° C.

[7] = tested on: porcine gastric mucin extract (50 kDa band matched to Muc5ac mucin); assay: Mucolytic activity on gastric mucin (electrophoresis, Coomassie stain); assay type: biochemical; details: summary of FIG. 7 and FIG. 8
Procedure: FIG. 7 presents the effects of cysteamine bitartrate and compound 646 on porcine gastric mucin extract. One hundred microliters of gastric mucin extract (5 mg/mL) was incubated with and without cysteamine bitartrate and compound 646 separately, at 37° C. for 60 minutes.
Gastric Mucin extract solution: Mucin was prepared as stock solution of 5 mg/mL in water, in NaCl Ringer (150 mM Na^+, 4.6 mM K^+, 1 mM Ca^2+, 1 mM Mg^2+, 150 mM Cl^−, 2.5 mM PO4^x− and 10 mM glucose) pH 7.2, and in HCO3-Ringer solution (150 mM Na^+, 4.6 mM K^+, 1 mM Ca^2+, 1 mM Mg^2+, […] HCO3^−, 2.5 mM PO4^x− and 10 mM glucose) pH 8.
(§4) Mucolytic activity on gastric mucin. One hundred microliters of mucin solution were incubated with Cysteamine bitartrate or compound 646 at final concentrations from 0 to 2 mM as indicated in the text. Mixture was incubated at 37° C. for 0-1 hr. Mucolytic activity was ended with 30 microliters of SDS-sample buffer solution. Forty-five microliters of each sample/well were separated in an electrophoresis gel 4-12% Tris-Glycine. After electrophoresis gels were stained with Coomassie Blue solution.
In vitro mucolytic activity of cysteamine bitartrate and compound 646. To evaluate the mucolytic activity of cysteamine bitartrate and 2-aminoethane-1-d-1-thiol hydrochloride (Compound 646), gastric mucin extract was used as a substrate that was treated with 200 and 400 μM of cysteamine bitartrate or Compound 646 respectively.
Mass spectrometry analysis of the isolated 50 kDa protein band. Muc5ac and Muc6 mucins are two major secretory mucins found in the stomach. In order identify which of these mucins were part of the 50 kDa band, mass spectrometry was utilized. Mass spectrometry analysis of the 50 kDa protein band identified 17 unique peptides that matched with porcine Muc5ac mucin.

[8] = tested on: porcine airway mucus; assay: Mucolytic activity on porcine airway mucin (electrophoresis, Coomassie stain); assay type: biochemical; details: summary of FIG. 10
Procedure: FIG. 9 presents the effect of compound 646 on porcine airway mucus. Mucus collected from porcine upper airways diluted in NaHCO3-Ringer, was treated with different concentrations of compound 646 (0, 0.25. 0.5 and 1 mM), for 60 minutes at 37° C. In lane 1, representative protein pattern after electrophoresis protein separation of untreated porcine airway mucus (40 μg/well).
Airway mucus supernatant diluted in NaHCO3-Ringer was treated with or without cysteamine bitartrate under basic and acidic conditions at 37° C. for 60 minutes.
as §3
as §4, with “porcine airway mucin:” for “gastric mucin.”, “collected porcine airway supernatant was” for “mucin solution were”, “text.” for “text. Mixture was incubated at 37° C. for 0-1 hr.”, “45” for “Forty-five”
Mucolytic activity of synthetic compound 646. Respiratory airway mucus contained Muc5aC and Muc5B mucins. In order to determine whether compound 646 be used as a mucolytic agent for respiratory airways, supernatant of mucus collected from porcine airways was treated with compound 646 at different concentration (0-1 mM) for 1 h at 37° C.
Mucolytic activity of cysteamine bitartrate under basic and acidic conditions. To validate whether mucolytic activity of cysteamine bitartrate depends on changes of pH, airway mucus supernatant was incubated for 1 h at 37° C. with or without 2 mM cysteamine bitartrate diluted in NaHCO3. An additional airway mucus sample was treated with cysteamine bitartrate and supplemented with 4 μL of 0.1 N of acetic solution pH 4.5. […] The reduction, however, was approximately half of the decrease seen under acidic conditions.

[9] = tested on: mucin extracted from porcine guts; assay: Effects of cysteamine at nM concentrations on mucin extracted from porcine guts; assay type: biochemical; details: FIG. 11
Description: FIG. 11 showing the effects of cysteamine at nM concentrations, on mucin extracted from porcine guts.

| Compound | influence of acidic and basic conditions on mucolytic activity on porcine Muc5ac mucin [1] | appearance of secreted mucus on trachea sections [2] | native Muc5ac levels on epithelial luminal surfaces (immunoblot) [3] | accumulation of viscous mucus and mucociliary clearance [4] | breaking down the mucus (secreted Muc5ac western blot) [3] | mucolytic activity in comparison ([3]; comparison between deuterated cystamine compounds) | appearance of secreted mucus on trachea sections ([2]; dihydrochloride) | displaced volume percentage of porcine mucin as a function of time (0-12 seconds) [5] | mucin clearance on airway surface epithelium [6] | anti-mucin effect against gastric mucin, Muc5ac in particular [7] | influence of acidic conditions on mucolytic effect [8] | dose dependence of mucolytic effect [9] |
| --- | --- | --- | --- | --- | --- | --- | --- | --- | --- | --- | --- | --- |
| Cl.[2H]C([2H])(S)CN [Compound 656, 2-mercaptoethan-2,2-d2-1-aminium chloride] | enhanced under acidic conditions | dispersed secreted mucus | decreased native Muc5ac levels | prevented accumulation of viscous mucus and improves mucociliary clearance | – | – | – | – | – | – | – | – |
| Cl.Cl.[2H]C([2H])(CN)SSC([2H])([2H])CN [Compound 655, 2,2′-disulfanediylbis(ethan-2,2-d2-1-aminium) chloride] | enhanced under acidic conditions | dispersed secreted mucus | decreased native Muc5ac levels | prevented accumulation of viscous mucus and improves mucociliary clearance | consistently works well in breaking down the mucus | better mucolytic activity than Compound 647 | – | – | – | – | – | – |
| [2H]C(CN)SSC([2H])CN (stereo not drawn) [Compound 647, 2,2′-disulfanediylbis(ethan-2-d-1-amine) dihydrochloride] | enhanced under acidic conditions | – | decreased native Muc5ac levels | prevented accumulation of viscous mucus and improves mucociliary clearance | consistently works well in breaking down the mucus | – | dispersed clusters of secreted mucus | – | – | – | – | – |
| NCCS [Cysteamine bitartrate, reference compound] | – | – | – | prevented accumulation of viscous mucus and improves mucociliary clearance | – | – | – | noticeably reduced | cleared from the luminal surface | anti-mucin effect against gastric mucin | enhanced when acidic conditions are used | dose dependent |
